From the supplement of paper PMC3974653
Where a name gives a salt, the structure may show the parent alone.

system: MTT (mouse pheochromocytoma); assay: IC50 of cell viability (ATP content); conditions: (24 or 48 h)
How it was run: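 MTT mouse pheochromocytoma cells (5 µl of 200,000 cells/ml per well, white 1536-well plates, DMEM with 5% FBS and 1% horse serum) were cultured overnight at 37°C, 5% CO2. They then received 23 nl library compound in DMSO by pintool at 8 concentrations (final 0.5 nM to 46 µM) for 24 or 48 hrs. CellTiter-Glo ATP luminescence was read after 15 minutes. Signals were normalised to positive-control (100% inhibition) and DMSO (0%) wells, and IC50 came from a four-parameter logistic fit.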

| Compound | IC50 of cell viability |
| --- | --- |
| CCN(CC)C(=O)/C(C#N)=C/c1cc(O)c(O)c([N+](=O)[O-])c1 [Entacapone] | > 46 µM |
| CN1C=C(C2=CC=CC=C12)C3=C(/C(=O)NC\3=O)C4=CN(C5CCN(CC6=NC=CC=C6)CC5)C7=C4C=CC=C7 [Enzastaurin] | > 46 µM |
| CC(/C=C1\SC(=S)N(CC(=O)O)C1=O)=C\c1ccccc1 [Epalrestat] | > 46 µM |
| C[C@]12CC[C@@H]3c4ccc(O)cc4CC[C@H]3[C@@H]1C[C@H](O)C2O (stereo partly drawn) [Epiestriol] | > 46 µM |
| COc1cc(C)nc(-n2nc(C)cc2OC)n1 [Epirizole] | > 46 µM |
| C[C@@]12CC[C@H]3[C@@H](CC[C@@H]4C[C@H]5S[C@H]5C[C@]43C)[C@H]1CC[C@H]2O [Epitiostanol] | > 46 µM |
| COC(=O)[C@@H]1CC2=CC(=O)CC[C@]2(C)[C@@]23O[C@@H]2C[C@@]2(C)[C@@H](CC[C@@]24CCC(=O)O4)[C@H]13 [Eplerenone] | > 46 µM |
| CCC(C)C1OC2(C=CC1C)CC1CC(CC=C(C)C(OC3CC(OC)C(OC4CC(OC)C(NC(C)=O)C(C)O4)C(C)O3)C(C)C=CC=C3COC4C(O)C(C)=CC(C(=O)O1)C34O)O2 (stereo not drawn) [Eprinomectin B1a] | > 46 µM |
| CC(C)(C)NC(=O)[C@H]1CC[C@H]2[C@@H]3CC=C4C=C(C(=O)O)CC[C@@]4(C)[C@H]3CC[C@]12C [Epristeride] | > 46 µM |
| O=C(NCCCN1CCOCC1)c1ccc(Cl)cc1 [Eprobemida] | > 46 µM |
| CCCCc1ncc(/C=C(\Cc2cccs2)C(=O)O)n1Cc1ccc(C(=O)O)cc1 [Eprosartan mesylate] | > 46 µM |
| COc1cc2[nH]c(C)c(CCN3CCN(c4ccccc4)CC3)c2cc1OC [Equipertine hydrochloride] | > 46 µM |
| O=C(O)CSCC(=O)NC1CCSC1=O (stereo not drawn) [Erdosteine] | > 46 µM |
| CN1C[C@@H](\C=C\2[C@H]1CC3=C[NH]C4=C3C2=CC=C4)C(=O)N[C@]5(C)O[C@@]6(O)[C@@H]7CCCN7C(=O)[C@H](CC8=CC=CC=C8)N6C5=O.CN9C[C@@H](\C=C\%10[C@H]9CC%11=C[NH]C%12=C%11C%10=CC=C%12)C(=O)N[C@]%13(C)O[C@@]%14(O)[C@@H]%15CCCN%15C(=O)[C@H](CC%16=CC=CC=C%16)N%14C%13=O.O[C@H]([C@@H](O)C([O-])=O)C(O)=O [Ergotamine D-tartrate] | > 46 µM |
| C#Cc1cccc(Nc2ncnc3cc(OCCOC)c(OCCOC)cc23)c1 [Erlotinib] | > 46 µM |
| CCOC(=O)CCC(=O)OC1C(OC2C(C)C(OC3CC(C)(OC)C(O)C(C)O3)C(C)C(=O)OC(CC)C(C)(O)C(O)C(C)C(=O)C(C)CC2(C)O)OC(C)CC1N(C)C (stereo not drawn) [Erythromycin ethyl succinate] | > 46 µM |
| O=C1OC2(c3ccccc31)c1cc(I)c(O)c(I)c1Oc1c2cc(I)c(O)c1I [Erythrosin B] | > 46 µM |
| O=C(CN1CCNCC1)NC1CCCCC1 [Esaprazola] | > 46 µM |
| OC[C@@H]1O[C@@H](OC2=CC\3=C(OC(=O)\C=C3)C=C2O)[C@H](O)[C@H](O)[C@@H]1O [Esculin Hydrate] | > 46 µM |

| Compound | IC50 of cell viability |
| --- | --- |
| COC(=O)CCc1ccc(OCC(O)CNC(C)C)cc1 (stereo not drawn) [Esmolol hydrochloride] | > 46 µM |
| CCCCCCC(=O)O[C@@H]1CC[C@H]2[C@@H]3CCc4cc(O)ccc4[C@H]3CC[C@]12C [Estradiol enanthate] | > 46 µM |
| C[C@]12CC[C@H]3c4ccc(O)cc4CC[C@@H]3[C@H]1CC[C@@H]2OP(=O)(O)O [Estradiol phosphate] | > 46 µM |
| C[C@@]12CC[C@@H]3c4ccc(O[S+](=O)([O-])O)cc4CC[C@H]3[C@H]1CCC2=O [Estropipate] | > 46 µM |
| CN1CCN(C(=O)O[C@H]2c3nccnc3C(=O)N2c2ccc(Cl)cn2)CC1 [Eszopiclone] | > 46 µM |
| CCOC(=O)c1cnc2c(cnn2CC)c1NN=C(C)C.Cl [Etazolate hydrochloride] | > 46 µM |
| CCN(CC)[S+](=O)([O-])c1ccc(C(=O)O)cc1 [Etebenecid] | > 46 µM |
| C=C(CC)C(=O)c1ccc(OCC(=O)O)c(Cl)c1Cl [Ethacrynic acid] | > 46 µM |
| CC[C@H](CO)NCCN[C@@H](CC)CO [Ethambutol dihydrochloride] | > 46 µM |
| CCN(CC)C(=O)c1ccc(O)c(OC)c1 [Ethamivan] | > 46 µM |
| CCNCC.O=[S+]([O-])(O)c1cc(O)ccc1O [Ethamsylate] | > 46 µM |
| NCCO [Ethanolamine] | > 46 µM |
| CC(=O)c1ccc(OCC(=O)N2CCCCC2)cc1 [Ethanone, 2-(4-acetylphenoxy)-1-(1-piperidinyl)-] | > 46 µM |
| CCC1Nc2cc(Cl)c([S+](N)(=O)[O-])cc2[S+](=O)([O-])N1 (stereo not drawn) [Ethiazide] | > 46 µM |
| CC[n+]1c(-c2ccccc2)c2cc(N)ccc2c2ccc(N)cc21 [Ethidium bromide] | > 46 µM |
| CCc1cc(C(N)=S)ccn1 [Ethionamide] | > 46 µM |
| CCOC(=O)C1(c2ccccc2)CCCN(C)CC1 (stereo not drawn) [Ethoheptazine hydrochloride] | > 46 µM |
| CCCSP(=O)(OCC)SCCC [Ethoprop] | > 46 µM |
| CCN(CC)[C@@H](C)CN1c2ccccc2Sc2ccccc21 [Ethopropazine hydrochloride] | > 46 µM |
